# Data reported in patent publication US20170320870A1 (Medical Research Council Technology, priority 2009, published 2017).
# Columns and labels:
# Experiment in all cases: Kinase selectivity: percentage inhibition of each specific kinase at 1 μM inhibitor concentration
# Assay type in all cases: biochemical
# [1] = biological target: each specific kinase (kinase selectivity panel, Table 2) (Homo sapiens, UniProt P49841); conditions: GSK3b
# Experimental: (§1) Values are expressed as percentage inhibition of the each specific kinase at 1 μM inhibitor concentration.
# [2] = biological target: each specific kinase (kinase selectivity panel, Table 2) (Homo sapiens, UniProt Q16539); conditions: p38a MAPK
# Sequence of each specific kinase (kinase selectivity panel, Table 2) (Homo sapiens, UniProt Q16539) (Q16539 whole entry): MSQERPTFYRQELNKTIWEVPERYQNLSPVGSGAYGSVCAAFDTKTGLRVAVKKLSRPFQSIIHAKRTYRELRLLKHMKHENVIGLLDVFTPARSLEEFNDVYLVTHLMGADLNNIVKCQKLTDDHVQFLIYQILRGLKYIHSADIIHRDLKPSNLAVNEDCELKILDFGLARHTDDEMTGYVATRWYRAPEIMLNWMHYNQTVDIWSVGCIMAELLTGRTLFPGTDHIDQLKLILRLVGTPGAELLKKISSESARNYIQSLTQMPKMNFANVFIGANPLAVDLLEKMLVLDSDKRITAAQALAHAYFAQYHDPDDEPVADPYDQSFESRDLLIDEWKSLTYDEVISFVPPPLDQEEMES
# Experimental: as §1
# [3] = biological target: each specific kinase (kinase selectivity panel, Table 2) (Homo sapiens, UniProt Q96SB4); conditions: SRPK1
# Sequence of each specific kinase (kinase selectivity panel, Table 2) (Homo sapiens, UniProt Q96SB4) (Q96SB4 whole entry): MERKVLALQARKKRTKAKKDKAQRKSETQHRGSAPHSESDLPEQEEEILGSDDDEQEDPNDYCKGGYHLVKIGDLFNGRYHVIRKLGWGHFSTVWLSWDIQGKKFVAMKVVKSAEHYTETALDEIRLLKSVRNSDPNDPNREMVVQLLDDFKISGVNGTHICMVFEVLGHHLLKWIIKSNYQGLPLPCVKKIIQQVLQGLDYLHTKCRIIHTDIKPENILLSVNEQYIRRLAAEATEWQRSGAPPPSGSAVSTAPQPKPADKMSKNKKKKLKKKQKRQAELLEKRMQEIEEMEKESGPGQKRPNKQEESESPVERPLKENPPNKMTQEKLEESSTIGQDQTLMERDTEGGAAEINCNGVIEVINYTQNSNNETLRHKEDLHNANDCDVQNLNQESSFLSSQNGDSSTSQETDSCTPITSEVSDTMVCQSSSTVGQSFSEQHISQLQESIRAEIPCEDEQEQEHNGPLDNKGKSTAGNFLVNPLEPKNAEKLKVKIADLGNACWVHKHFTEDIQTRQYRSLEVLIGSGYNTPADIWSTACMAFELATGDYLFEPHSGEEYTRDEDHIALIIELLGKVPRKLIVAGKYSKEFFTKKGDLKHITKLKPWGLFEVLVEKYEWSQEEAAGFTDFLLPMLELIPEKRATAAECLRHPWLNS
# Experimental: as §1
# [4] = biological target: each specific kinase (kinase selectivity panel, Table 2) (Homo sapiens, UniProt Q9HBH9); conditions: MNK2
# Experimental: as §1
# [5] = biological target: each specific kinase (kinase selectivity panel, Table 2) (Homo sapiens, UniProt Q13233); conditions: MEKK1
# Sequence of each specific kinase (kinase selectivity panel, Table 2) (Homo sapiens, UniProt Q13233) (Q13233 whole entry): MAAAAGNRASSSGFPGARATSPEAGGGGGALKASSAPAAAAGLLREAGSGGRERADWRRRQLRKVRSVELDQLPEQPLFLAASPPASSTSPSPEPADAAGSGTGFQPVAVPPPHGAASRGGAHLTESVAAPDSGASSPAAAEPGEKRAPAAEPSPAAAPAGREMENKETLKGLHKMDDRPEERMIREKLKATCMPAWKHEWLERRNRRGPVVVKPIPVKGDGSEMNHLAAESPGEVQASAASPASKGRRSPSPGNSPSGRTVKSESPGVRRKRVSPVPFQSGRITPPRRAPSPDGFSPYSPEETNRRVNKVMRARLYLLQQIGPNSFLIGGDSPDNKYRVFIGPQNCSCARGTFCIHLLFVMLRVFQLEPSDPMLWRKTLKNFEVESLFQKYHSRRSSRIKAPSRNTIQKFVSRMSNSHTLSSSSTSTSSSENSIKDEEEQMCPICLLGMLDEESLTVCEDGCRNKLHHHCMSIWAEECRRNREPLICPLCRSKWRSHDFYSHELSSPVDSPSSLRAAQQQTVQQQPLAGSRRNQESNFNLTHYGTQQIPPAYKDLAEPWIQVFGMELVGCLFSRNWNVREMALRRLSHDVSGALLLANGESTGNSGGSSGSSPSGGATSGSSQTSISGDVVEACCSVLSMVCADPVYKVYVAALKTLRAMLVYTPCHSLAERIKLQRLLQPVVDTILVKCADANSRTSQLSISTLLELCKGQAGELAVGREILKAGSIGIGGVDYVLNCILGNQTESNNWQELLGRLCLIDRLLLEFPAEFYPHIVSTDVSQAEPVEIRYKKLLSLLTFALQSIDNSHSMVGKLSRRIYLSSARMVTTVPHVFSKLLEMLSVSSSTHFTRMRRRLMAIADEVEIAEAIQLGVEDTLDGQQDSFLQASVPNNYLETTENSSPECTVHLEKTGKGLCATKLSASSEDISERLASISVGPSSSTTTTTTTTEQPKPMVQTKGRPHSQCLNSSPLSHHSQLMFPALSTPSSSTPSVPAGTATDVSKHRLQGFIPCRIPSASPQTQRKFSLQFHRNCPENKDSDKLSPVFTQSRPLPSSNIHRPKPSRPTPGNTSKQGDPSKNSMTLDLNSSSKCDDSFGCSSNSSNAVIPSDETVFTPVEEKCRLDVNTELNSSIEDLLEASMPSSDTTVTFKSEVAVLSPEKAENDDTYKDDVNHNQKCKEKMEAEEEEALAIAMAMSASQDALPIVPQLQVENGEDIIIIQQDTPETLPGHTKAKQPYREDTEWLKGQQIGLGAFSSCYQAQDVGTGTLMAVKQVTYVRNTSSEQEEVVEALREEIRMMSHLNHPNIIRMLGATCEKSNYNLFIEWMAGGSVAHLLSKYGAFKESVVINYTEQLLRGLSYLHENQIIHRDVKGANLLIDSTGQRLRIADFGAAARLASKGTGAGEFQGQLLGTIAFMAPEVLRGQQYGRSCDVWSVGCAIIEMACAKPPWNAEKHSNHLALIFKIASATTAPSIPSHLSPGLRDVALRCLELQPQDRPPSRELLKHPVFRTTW
# Experimental: as §1
# [6] = biological target: each specific kinase (kinase selectivity panel, Table 2) (Homo sapiens, UniProt Q9UHD2); conditions: TBK1
# Experimental: as §1
# [7] = biological target: each specific kinase (kinase selectivity panel, Table 2) (Homo sapiens, UniProt Q16513); conditions: PRK2
# Experimental: as §1
# [8] = biological target: each specific kinase (kinase selectivity panel, Table 2) (Homo sapiens, UniProt O00418); conditions: EF2K
# Sequence of each specific kinase (kinase selectivity panel, Table 2) (Homo sapiens, UniProt O00418) (O00418 whole entry): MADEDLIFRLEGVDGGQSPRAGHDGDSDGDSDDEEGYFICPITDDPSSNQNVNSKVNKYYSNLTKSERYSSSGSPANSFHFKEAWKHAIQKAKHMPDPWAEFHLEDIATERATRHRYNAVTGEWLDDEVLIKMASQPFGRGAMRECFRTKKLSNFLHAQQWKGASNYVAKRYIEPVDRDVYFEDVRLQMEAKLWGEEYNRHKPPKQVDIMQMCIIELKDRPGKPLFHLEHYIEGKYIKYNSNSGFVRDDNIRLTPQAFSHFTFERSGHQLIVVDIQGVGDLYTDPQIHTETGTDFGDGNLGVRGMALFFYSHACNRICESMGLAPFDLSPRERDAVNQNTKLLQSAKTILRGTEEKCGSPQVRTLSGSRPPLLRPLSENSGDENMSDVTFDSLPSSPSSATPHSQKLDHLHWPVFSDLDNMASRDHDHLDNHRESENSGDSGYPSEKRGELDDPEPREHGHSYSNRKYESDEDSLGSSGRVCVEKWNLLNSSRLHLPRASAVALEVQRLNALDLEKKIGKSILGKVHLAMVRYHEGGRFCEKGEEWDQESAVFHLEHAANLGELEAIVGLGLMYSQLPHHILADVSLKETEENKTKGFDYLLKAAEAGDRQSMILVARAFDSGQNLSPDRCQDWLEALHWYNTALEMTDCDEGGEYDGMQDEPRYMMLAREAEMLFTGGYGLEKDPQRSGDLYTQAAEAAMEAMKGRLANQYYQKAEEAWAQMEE
# Experimental: as §1
# [9] = biological target: each specific kinase (kinase selectivity panel, Table 2) (Homo sapiens, UniProt P45984); conditions: JNK2
# Experimental: as §1
# [10] = biological target: each specific kinase (kinase selectivity panel, Table 2) (Homo sapiens, UniProt Q13627); conditions: DYRK1A
# Experimental: as §1
# [11] = biological target: each specific kinase (kinase selectivity panel, Table 2) (Homo sapiens, UniProt O15530); conditions: PDK1
# Experimental: as §1
# [12] = biological target: each specific kinase (kinase selectivity panel, Table 2) (Homo sapiens, UniProt P48730); conditions: CK1
# Experimental: as §1
# [13] = biological target: each specific kinase (kinase selectivity panel, Table 2) (Homo sapiens, UniProt Q15139); conditions: PKD1
# Sequence of each specific kinase (kinase selectivity panel, Table 2) (Homo sapiens, UniProt Q15139) (Q15139 whole entry): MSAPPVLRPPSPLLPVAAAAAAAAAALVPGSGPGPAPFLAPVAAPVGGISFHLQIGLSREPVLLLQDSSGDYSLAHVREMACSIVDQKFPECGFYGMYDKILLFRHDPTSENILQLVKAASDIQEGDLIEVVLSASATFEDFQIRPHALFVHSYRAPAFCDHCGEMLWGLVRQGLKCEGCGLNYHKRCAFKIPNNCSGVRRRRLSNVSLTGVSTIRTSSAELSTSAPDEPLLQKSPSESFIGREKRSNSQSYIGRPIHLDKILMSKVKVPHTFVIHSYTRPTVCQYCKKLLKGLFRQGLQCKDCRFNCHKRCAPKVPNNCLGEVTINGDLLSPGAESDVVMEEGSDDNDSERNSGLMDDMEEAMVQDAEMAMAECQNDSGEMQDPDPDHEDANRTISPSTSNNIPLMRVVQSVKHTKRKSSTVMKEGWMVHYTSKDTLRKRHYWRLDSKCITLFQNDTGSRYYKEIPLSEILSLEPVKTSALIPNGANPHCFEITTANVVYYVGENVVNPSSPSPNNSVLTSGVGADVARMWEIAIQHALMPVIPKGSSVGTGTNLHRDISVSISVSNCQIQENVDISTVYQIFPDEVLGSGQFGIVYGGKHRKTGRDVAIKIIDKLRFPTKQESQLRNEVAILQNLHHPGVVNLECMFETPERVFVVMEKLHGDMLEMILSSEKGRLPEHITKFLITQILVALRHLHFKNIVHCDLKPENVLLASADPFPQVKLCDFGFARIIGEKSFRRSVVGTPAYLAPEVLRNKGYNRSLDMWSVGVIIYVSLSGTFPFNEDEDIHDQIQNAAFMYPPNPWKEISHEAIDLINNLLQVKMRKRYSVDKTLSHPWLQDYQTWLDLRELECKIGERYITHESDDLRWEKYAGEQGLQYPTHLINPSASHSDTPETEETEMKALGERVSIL
# Experimental: as §1
# [14] = biological target: each specific kinase (kinase selectivity panel, Table 2) (Homo sapiens, UniProt P68400); conditions: CK2
# Experimental: as §1
# [15] = biological target: each specific kinase (kinase selectivity panel, Table 2) (Homo sapiens, UniProt P80192); conditions: MLK1
# Experimental: as §1
# [16] = biological target: each specific kinase (kinase selectivity panel, Table 2) (Homo sapiens, UniProt Q06187); conditions: BTK
# Experimental: as §1
# [17] = biological target: each specific kinase (kinase selectivity panel, Table 2) (Homo sapiens, UniProt P31749); conditions: PKBa
# Experimental: as §1
# [18] = biological target: each specific kinase (kinase selectivity panel, Table 2) (Homo sapiens, UniProt Q9H2X6); conditions: HIPK2
# Experimental: as §1
# [19] = biological target: each specific kinase (kinase selectivity panel, Table 2) (Homo sapiens, UniProt P41240); conditions: CSK
# Sequence of each specific kinase (kinase selectivity panel, Table 2) (Homo sapiens, UniProt P41240) (P41240 whole entry): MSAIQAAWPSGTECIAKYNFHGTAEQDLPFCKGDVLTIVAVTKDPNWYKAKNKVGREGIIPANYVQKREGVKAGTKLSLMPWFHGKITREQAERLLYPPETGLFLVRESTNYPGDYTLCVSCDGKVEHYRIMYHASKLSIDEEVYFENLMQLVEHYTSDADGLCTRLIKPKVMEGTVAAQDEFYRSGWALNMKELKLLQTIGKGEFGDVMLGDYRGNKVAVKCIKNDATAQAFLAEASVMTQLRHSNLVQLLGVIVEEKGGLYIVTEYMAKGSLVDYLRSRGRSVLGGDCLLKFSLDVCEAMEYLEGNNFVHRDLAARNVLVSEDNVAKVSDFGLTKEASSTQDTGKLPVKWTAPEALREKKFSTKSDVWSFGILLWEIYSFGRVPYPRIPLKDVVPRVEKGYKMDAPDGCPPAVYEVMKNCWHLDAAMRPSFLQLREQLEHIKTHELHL
# Experimental: as §1
# [20] = biological target: each specific kinase (kinase selectivity panel, Table 2) (Homo sapiens, UniProt Q16584); conditions: MLK3
# Experimental: as §1
# [21] = biological target: each specific kinase (kinase selectivity panel, Table 2) (Homo sapiens, UniProt P24941); conditions: CDK2-Cyclin A
# Experimental: as §1
# [22] = biological target: each specific kinase (kinase selectivity panel, Table 2) (Homo sapiens, UniProt Q9BUB5); conditions: MNK1
# Experimental: as §1
# [23] = biological target: each specific kinase (kinase selectivity panel, Table 2) (Homo sapiens, UniProt Q14164); conditions: IKKe
# Experimental: as §1
# [24] = biological target: each specific kinase (kinase selectivity panel, Table 2) (Homo sapiens, UniProt Q8IWQ3); conditions: BRSK2
# Experimental: as §1
# [25] = biological target: each specific kinase (kinase selectivity panel, Table 2) (Homo sapiens, UniProt Q9NWZ3); conditions: IRAK4
# Sequence of each specific kinase (kinase selectivity panel, Table 2) (Homo sapiens, UniProt Q9NWZ3) (Q9NWZ3 whole entry): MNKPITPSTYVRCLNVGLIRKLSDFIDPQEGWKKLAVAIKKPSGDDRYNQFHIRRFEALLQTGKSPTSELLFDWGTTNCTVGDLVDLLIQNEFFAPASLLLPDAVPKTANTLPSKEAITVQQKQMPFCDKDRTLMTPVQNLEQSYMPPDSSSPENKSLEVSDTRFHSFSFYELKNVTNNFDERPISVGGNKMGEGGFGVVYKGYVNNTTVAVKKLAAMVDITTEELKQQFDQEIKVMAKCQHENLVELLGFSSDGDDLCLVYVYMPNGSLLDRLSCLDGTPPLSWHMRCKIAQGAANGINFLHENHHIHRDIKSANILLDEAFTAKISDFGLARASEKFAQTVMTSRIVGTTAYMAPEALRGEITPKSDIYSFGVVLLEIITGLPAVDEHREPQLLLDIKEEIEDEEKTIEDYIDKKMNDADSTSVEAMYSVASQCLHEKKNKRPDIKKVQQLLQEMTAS
# Experimental: as §1
# [26] = biological target: each specific kinase (kinase selectivity panel, Table 2) (Homo sapiens, UniProt O43318); conditions: TAK1
# Experimental: as §1
# [27] = biological target: each specific kinase (kinase selectivity panel, Table 2) (Homo sapiens, UniProt P17612); conditions: PKA
# Experimental: as §1
# [28] = biological target: each specific kinase (kinase selectivity panel, Table 2) (Homo sapiens, UniProt P51955); conditions: NEK2a
# Experimental: as §1
# [29] = biological target: each specific kinase (kinase selectivity panel, Table 2) (Homo sapiens, UniProt Q13188); conditions: MST2
# Experimental: as §1
# [30] = biological target: each specific kinase (kinase selectivity panel, Table 2) (Homo sapiens, UniProt P54753); conditions: EPH-B3
# Experimental: as §1
# [31] = biological target: each specific kinase (kinase selectivity panel, Table 2) (Homo sapiens, UniProt P17252); conditions: PKCa
# Experimental: as §1
# [32] = biological target: each specific kinase (kinase selectivity panel, Table 2) (Homo sapiens, UniProt O96013); conditions: PAK4
# Experimental: as §1
# [33] = biological target: each specific kinase (kinase selectivity panel, Table 2) (Homo sapiens, UniProt O96017); conditions: CHK2
# Experimental: as §1
# [34] = biological target: each specific kinase (kinase selectivity panel, Table 2) (Homo sapiens, UniProt Q8IW41); conditions: PRAK
# Experimental: as §1
SMILES,percentage inhibition of GSK3b [1] [percentage],percentage inhibition of p38a MAPK [2] [percentage],percentage inhibition of SRPK1 [3] [percentage],percentage inhibition of MNK2 [4] [percentage],percentage inhibition of MEKK1 [5] [percentage],percentage inhibition of TBK1 [6] [percentage],percentage inhibition of PRK2 [7] [percentage],percentage inhibition of EF2K [8] [percentage],percentage inhibition of JNK2 [9] [percentage],percentage inhibition of DYRK1A [10] [percentage],percentage inhibition of PDK1 [11] [percentage],percentage inhibition of CK1 [12] [percentage],percentage inhibition of PKD1 [13] [percentage],percentage inhibition of CK2 [14] [percentage],percentage inhibition of MLK1 [15] [percentage],percentage inhibition of BTK [16] [percentage],percentage inhibition of PKBa [17] [percentage],percentage inhibition of HIPK2 [18] [percentage],percentage inhibition of CSK [19] [percentage],percentage inhibition of MLK3 [20] [percentage],further results
"CC[C@H](C)Oc1nccc2[nH]nc(C)c12 [Example 121, 4-((S)-sec-Butoxy)-3-methyl-1H-pyrazolo[4,3-c]pyridine]",25,0,21,7,0,6,39,0,0,27,13,31,29,0,19,0,19,0,6,23,percentage inhibition of CDK2-Cyclin A [21]: 61 percentage; percentage inhibition of MNK1 [22]: 1 percentage; percentage inhibition of IKKe [23]: 19 percentage; percentage inhibition of BRSK2 [24]: 13 percentage; percentage inhibition of IRAK4 [25]: 12 percentage; percentage inhibition of TAK1 [26]: 72 percentage; percentage inhibition of PKA [27]: 26 percentage; percentage inhibition of NEK2a [28]: 0 percentage; percentage inhibition of MST2 [29]: 55 percentage; percentage inhibition of EPH-B3 [30]: 6 percentage; percentage inhibition of PKCa [31]: 2 percentage; percentage inhibition of PAK4 [32]: 26 percentage; percentage inhibition of CHK2 [33]: 13 percentage; percentage inhibition of PRAK [34]: 0 percentage
"O=C(CCc1n[nH]c2ccnc(NC3CCCCC3)c12)N1CCC[C@H](c2ccccc2)C1 [Example 172, 3-(4-Cyclohexylamino-1H-pyrazolo[4,3-c]pyridin-3-yl)-1-((R)-3-phenyl-piperidin-1-yl)-propan-1-one]",5,6,17,0,7,14,16,0,22,27,0,6,1,3,13,12,0,0,11,29,percentage inhibition of CDK2-Cyclin A [21]: 0 percentage; percentage inhibition of MNK1 [22]: 0 percentage; percentage inhibition of IKKe [23]: 17 percentage; percentage inhibition of BRSK2 [24]: 0 percentage; percentage inhibition of IRAK4 [25]: 0 percentage; percentage inhibition of TAK1 [26]: 9 percentage; percentage inhibition of PKA [27]: 5 percentage; percentage inhibition of NEK2a [28]: 5 percentage; percentage inhibition of MST2 [29]: 10 percentage; percentage inhibition of EPH-B3 [30]: 3 percentage; percentage inhibition of PKCa [31]: 0 percentage; percentage inhibition of PAK4 [32]: 24 percentage; percentage inhibition of CHK2 [33]: 40 percentage; percentage inhibition of PRAK [34]: 0 percentage
